According to patent publication US20130096067A1, “DROSOPHILA TUMOR STEM CELL MODEL AND USES THEREOF” (priority 2011, published 2013):

Test system: Raf-1^gof intestinal tumors
Settings: for Log2 (fold) (luciferase activity, log2 of the fold difference relative to DMSO controls) / Fold (luciferase activity, fold difference relative to DMSO controls): screen of 480 ICCB compounds in vials, compounds fed to flies with one-day old Raf-1^gof tumors, esg-Gal4 luciferase; for Log2 (fold) (luciferase activity, log2 of the fold difference relative to DMSO controls) / Fold (luciferase activity, fold difference relative to DMSO controls) / Log2 (fold) of luciferase activity relative to DMSO controls / Fold (luciferase activity relative to DMSO controls): assessed three days later; for Fold (luciferase activity, fold difference relative to DMSO controls) / Fold (luciferase activity relative to DMSO controls): averaged from multiple wells; for Log2 (fold) of luciferase activity relative to DMSO controls / Fold (luciferase activity relative to DMSO controls): ICCB compounds fed in vials to flies with one-day old Raf-1^gof tumors
Wherever Fold (luciferase activity relative to DMSO controls) is given: test concentration or dose not given here.
Wherever Fold (luciferase activity, fold difference relative to DMSO controls) is given: test concentration or dose not given here.
Wherever Log2 (fold) (luciferase activity, log2 of the fold difference relative to DMSO controls) is given: test concentration or dose not given here.
Wherever Log2 (fold) of luciferase activity relative to DMSO controls is given: test concentration or dose not given here.

Compound	Fold (Table 3 summary of hits, Screen ICCB, luciferase relative to DMSO, fed three consecutive days in vials)	Log2 (fold) (luciferase activity, log2 of the fold difference relative to DMSO controls)	Fold (luciferase activity, fold difference relative to DMSO controls)	Log2 (fold) of luciferase activity relative to DMSO controls	Fold (luciferase activity relative to DMSO controls)
C/C1=C/C(=O)O[C@@H]2C[C@@H](CC[C@H](C)/C=C\CC1)O[C@@](O)([C@@H]1CSC(=O)N1)C2 [Latrunculin B, reference compound]	0.478 fold	−1.064	0.478	–	–
CC[C@@H]1/C=C(\C)C[C@H](C)C[C@H](OC)[C@H]2O[C@@](O)(C(=O)C(=O)N3CCCC[C@H]3C(=O)O[C@H](/C(C)=C/[C@@H]3CC[C@@H](O)[C@H](OC)C3)[C@H](C)[C@@H](O)CC1=O)[C@H](C)C[C@@H]2OC [ascomycin (FK-520)]	–	–	–	−0.035	0.976 fold
COc1c(C=O)c(O)cc2c1C(=O)c1ccccc1C2=O [damnacanthal]	–	−0.482	0.716	–	–
NC(=O)c1ccc(-c2nc(-c3ccccn3)c(-c3ccc4c(c3)OCO4)[nH]2)cc1 [SB-431542]	–	–	–	0.068	1.048 fold
CCCCCCCCCCCCCCCC(=O)NCCO [PALMITYLETHANOLAMIDE]	–	−0.486	0.714	–	–
CCCCCCCCC#CCC#CCC#CCCCC(=O)O [5,8,11-EICOSATRIYNOIC ACID]	–	–	–	0.094	1.067 fold
CCCCC/C=C\C/C=C\C/C=C\CCCCCCC(=O)NCCO [ANANDAMIDE (20:3, n-6)]	–	−0.653	0.636	–	–
Ro 20-1724	–	−0.242	0.846	–	–
O=C1CSC(c2ccccc2Cl)c2cc(Cl)ccc2N1 (stereo not shown) [CGP-37157]	–	–	–	−0.195	0.873 fold
Cn1cnc2c(NCc3ccccc3)nc(NCCO)nc21 [olomoucine]	–	−0.406	0.755	–	–
C1CCC[C@H]2CCCN3CC[C@@H](CCCCCC[C@@H]4CCCN5CC[C@@H](CC1)O[C@@H]45)O[C@@H]23 [Xestospongin C]	–	−0.456	0.729	–	–
CC(=O)N[C@@H](CC(C)C)C(=O)N[C@@H](CC(C)C)C(=O)N[C@H](C=O)CCCNC(=N)N [Leupeptin]	–	–	–	−0.038	0.974 fold
O=C(O)CCC/C=C\C[C@@H]1[C@H](CNNC(=O)Nc2ccccc2)[C@H]2CC[C@@H]1O2 [SQ-29548]	–	−0.606	0.657	–	–
CCCCCC(=O)/C=C/C=C\CCCCCCCC(=O)O [13-KETOOCTADECADIENOIC ACID]	–	–	–	0.320	1.248 fold
C=C1CCC(O)C/C1=C\C=C1\CCCC2(C)C1CCC2C(C)CCC(O)C(C)(C)O (stereo not shown) [24,25-DIHYDROXYVITAMIN D3]	–	−0.363	0.777	–	–
CC1(C)CCC(C)(C)c2cc(C(=O)Nc3ccc(C(=O)O)cc3)ccc21 [AM-580]	–	−0.311	0.806	–	–
CO[C@H](C/C=C\C=C\CC/C=C/C[C@H](C)/C=C/C(=C\C(=O)O)CC(=O)O)/C(C)=C\C=C(/C)C(=O)O [bongkrekic acid]	–	–	–	−0.102	0.932 fold
CC(=O)c1c(O)c(C)c(O)c(Cc2c(O)c3c(c(C(=O)/C=C/c4ccccc4)c2O)OC(C)(C)C=C3)c1O [Rottlerin]	–	−0.865	0.549	–	–
CCCCC/C=C\C/C=C\C/C=C\C/C=C\CCCCCC(=O)NCCO [ANANDAMIDE (22:4, n-6)]	–	–	–	0.007	1.005 fold
CCCCC[C@H](O)/C=C/[C@@H]1[C@@H](C/C=C\CCCC(=O)O)[C@H]2CO[C@@H]1C2 [U-46619]	–	–	–	−0.063	0.957 fold
Ro 31-8220	–	–	–	0.158	1.116 fold

Compound	Fold (Table 3 summary of hits, Screen ICCB, luciferase relative to DMSO, fed three consecutive days in vials)	Log2 (fold) (luciferase activity, log2 of the fold difference relative to DMSO controls)	Fold (luciferase activity, fold difference relative to DMSO controls)	Log2 (fold) of luciferase activity relative to DMSO controls	Fold (luciferase activity relative to DMSO controls)
CCCCCCCCCCOCCC(=O)O [4-OXATETRADECANOIC ACID]	–	–	–	0.004	1.003 fold
Clc1ccc2ncnc(NCc3ccc4c(c3)OCO4)c2c1 [MBCQ]	–	–	–	0.195	1.145 fold
Br.NC1CCc2cc(O)c(O)cc2C1 (stereo not shown) [6,7-ADTN HBr]	–	−0.383	0.767	–	–
CCCCC[C@H](O)/C=C/C1=C(CCCCCCC(=O)O)C(=O)CC1 [PROSTAGLANDIN B1]	–	−0.408	0.753	–	–
CC(C)=CCC/C(C)=C/CC/C(C)=C/CSCC(=O)O [FARNESYLTHIOACETIC ACID]	–	−0.295	0.815	–	–
CC1(C2CCCC2)Cc2cc(OCC(=O)O)c(Cl)c(Cl)c2C1=O (stereo not shown) [IAA-94]	–	–	–	0.061	1.043 fold
CCCCC/C=C\C/C=C\C/C=C\C/C=C\CCCC(=O)O [ARACHIDONIC ACID (20:4, n-6)]	–	–	–	−0.045	0.969 fold
CC(=O)OCOC(=O)CN(CC(=O)OCOC(C)=O)c1ccccc1OCCOc1ccccc1N(CC(=O)OCOC(C)=O)CC(=O)OCOC(C)=O [BAPTA-AM]	–	−0.242	0.846	–	–
COc1cc(/C=C/C(=O)CC(=O)/C=C/c2ccc(O)c(OC)c2)ccc1O [Curcumin]	–	–	–	0.112	1.081 fold
[Cl-].c1ccc2c(c1)[I+]c1ccccc1-2 [diphenyleneiodonium Cl]	–	−0.576	0.671	–	–
CCCCCCCCCCCCCCCCOCC(CO)OC(C)=O (stereo not shown) [1-HEXADECYL-2-O-ACETYL-GLYCEROL]	–	–	–	0.518	1.432 fold
COc1cc(/C=C(\C#N)C(N)=O)cc(CSc2nc3ccccc3s2)c1O [tyrphostin AG-825]	–	–	–	−0.042	0.972 fold
COc1ccc(Cl)cc1C(=O)NCCc1ccc(S(=O)(=O)NC(=O)NC2CCCCC2)cc1 [GLYBURIDE]	–	−0.217	0.861	–	–
CCCCC/C=C\C/C=C\CCCCCCCC(=O)NCC(=O)O [N-LINOLEOYLGLYCINE]	–	−0.285	0.821	–	–
COc1ccc(CCN(C)CCc2ccc(OC)c(OC)c2)cc1OC [YS035]	–	–	–	−0.152	0.900 fold
CN/C(=N\c1ccc(C2=NNC(=O)CC2C)cc1)NC#N (stereo not shown) [siguazodan]	–	−0.376	0.771	–	–
CC/C=C\C/C=C\C/C=C\CCCCCCCCCC(=O)O [EICOSATRIENOIC ACID (20:3 n-3)]	–	–	–	0.198	1.147 fold
CCCCCC=CCC=CCC=CC=CC(=O)CCCC(=O)O [5-KETOEICOSATETRAENOIC ACID]	–	−0.316	0.803	–	–
CC(C)(C)n1nc(-c2ccc(Cl)cc2)c2c(N)ncnc21 [PP2]	–	–	–	0.062	1.044 fold
O=C(O)CNC(=O)C(CS)Cc1ccccc1 (stereo not shown) [Thiorphan]	–	−0.673	0.627	–	–
CCCCC/C=C\C=C\[C@H](CCCCCCCC(=O)O)OO [9(S)-HPODE]	–	−0.294	0.816	–	–
